# In patent US20250171511A1, “ANTIVIRAL PEPTIDES AND METHODS OF USE THEREOF” (Versitech Limited, priority 2021, published 2025):
# Where no end group is shown, it is not given here. 4MPA = not defined here
# Test system: SARS-CoV-2 Delta variant
# Format: in vivo, hamster
# Conditions: 6 h exposure, 4 hamsters
substance,measurement,value
GAICHPVFCPRRYKQIGTCGLPGTKCCKKP-4MPA (cysteine pairing not given here; reading uncertain; also: printed as GAICHPVFCPRRYKQIGTCGLPGTKCCKKP-4MPA) [Peptide 4H30],transmission to naïve contact hamsters,25%
